Structures are written as SMILES. “And” between values parts separate entries of the source, which are not always exact repeats. Identical values can stand only once.

In data set [1] the target is erythrocyte KCa3.1 channels (Homo sapiens (Human), UniProt O15554). In words: Erythrocyte KCa3.1 assay. The class given is cell-based. The following applies: human erythrocytes, A23187-activated KCa3.1; read-out: RBC K (in vitro) Human IC50 (μM) Potency category. How it is done: Human blood was drawn from healthy human volunteers in a standard heparinized blood sampling vial (Vacutainer, Li/heparin, ED Bioscience, Plymouth, UK). The erythrocytes were packed by centrifugation, and the plasma and buffy coat were removed by aspiration. Erythrocytes were washed three times in the experimental salt solution and then stored at 0° C. until use. Blood samples from NMRI mice or from Wistar rats were treated similarly. The methodological principle is outlined in Macey et al. (1978) and further described in Strøbaek et al. (2013). Activation of the erythrocyte KCa3.1 channels were obtained by addition of the Ca^2+ ionophore A23187, which causes synchronized hyperpolarization, which is reported as a CCCP-mediated shift in the unbuffered extracellular pH of the erythrocyte suspension. Standard procedure: 3 mL unbuffered experimental salt solution (in mM: 2 KCl, 154 NaCl, 0.05 CaCl2) was heated to 37° C. with stirring. Packed erythrocytes were added (50 μL, final cytocrit 1.5%), and the extracellular pH (pHo) followed with a glass/calomel (pHG200-8/REF200, Radiometer, Denmark) electrode pair. CCCP (3 μL, final concentration 20 μM) was added followed by varying concentrations of test compounds (DMSO concentration constant). After pH stabilization at ˜7.2, A23187 (3 μL, final concentration 0.33 μM) was added to initiate the experiment. After the peak hyperpolarization was attained, the intracellular pH (pHi constant during the experiment) was found by haemolysing the erythrocytes via addition of 100 μL of Triton-X100.
The erythrocyte membrane potential, Vm, was calculated according to: […]
and the fractional remaining Ca^2+-activated K^+-conductance at the concentration C of blocker, fGK(C), was calculated from
where the K^+ equilibrium potential EK=−107 mV, the Cl^− equilibrium potential ECl=−12 mV and the Vm(0) and Vm(C) are the peak hyperpolarizations in the control and in the presence of a concentration of C of blocker respectively.
IC50 values for compounds were calculated from a plot of fGK(C) versus C by a fit to the Hill equation, using a custom program written in the IGOR-Pro software (WaveMetrics, Lake Oswego, OR, USA). All IC50-values are reported in μM.

A further data set can be described thus: physchem. The following applies: for solubility at 16 h: 25 °C, pH 7.4, aqueous buffer, kinetic from dmso stock. Here is the method:
2.79 g of K2HPO4 and 0.54 g of KH2PO4 was dissolved in 390 mL of milliQ water. pH was adjusted to 7.4 using 1N HCl/1N NaOH and final volume was made up to 400 mL with milliQ water.
In case of compounds not soluble/less quantity submission, 40/20/10Mm stocks were prepared and used for experiment.
Assay Procedure: • 245 μL of 50 mM phosphate buffer then 5 μL each of test compound/standards (80 mM) in their respective positions was added to the 1.1 mL 96 well plate. • DMSO Controls was prepared by taking 245 μL of 100% DMSO then 5 μL each of test compound in their respective positions and added to the 1.1 mL 96 well plate • Plate was incubated with mixing at 1600 RPM for 16 hours at room temperature (˜23 MC). • After incubation, samples were filtered using Millipore plates. • Filtrates were analysed by HPLC-UV.
Solubility is calculated using the following formula: […]

[2] abbreviates: 50 mM potassium phosphate buffer pH 7.40, 16 hr at ~25° C., incubation concentration 1600 μM.

Turning to `CN1CCC1CN(CC(C)(C)O)C1(c2ccc(F)c(C(F)(F)F)c2)CC1` (stereo not drawn) [1-((1-(4-fluoro-3-(trifluoromethyl)phenyl)cyclopropyl)((1-methylazetidin-2-yl)methyl)amino)-2-methylpropan-2-ol], the 50% inhibitory concentration (IC50) in data set [1] is less than 1 µM. In addition, the solubility at 16 h in the data set “physchem” is 597 µg/mL and 1600 µM.

On to `CC(C)(O)CN(CC1CCN1)C1(c2ccc(F)c(C(F)(F)F)c2)CC1` (stereo not drawn) [1-((azetidin-2-ylmethyl)(1-(4-fluoro-3-(trifluoromethyl)phenyl)cyclopropyl)amino)-2-methyl propan-2-ol], for which the IC50 in data set [1] was less than 0.3 µM. Also, the solubility at 16 h in “physchem” is 755 µg/mL and 1600 µM.

As for `N[C@H]1CCC[C@H]1NC1(c2ccc(F)c(C(F)(F)F)c2)CC1` [(1R,2S)-N1-(1-(4-fluoro-3-(trifluoromethyl)phenyl)cyclopropyl)-cyclopentane-1,2-diamine], the 50% inhibitory concentration (IC50) in data set [1] is less than 0.3 µM. In the data set “physchem”, the solubility at 16 h was 480 µg/mL and 1400 µM.

Consider `N[C@H]1CCC[C@@H]1NC1(c2ccc(F)c(C(F)(F)F)c2)CC1` [(1S,2S)-N1-(1-(4-fluoro-3-(trifluoromethyl)phenyl)cyclopropyl)-cyclopentane-1,2-diamine], for which the IC50 in data set [1] is less than 1 µM. Besides, the solubility at 16 h in “physchem” is 239 µg/mL and 700 µM.

`CN1CCC[C@H]1CN(C1(c2ccc(F)c(C(F)(F)F)c2)CC1)S(C)(=O)=O` [(S)-N-(1-(4-fluoro-3-(trifluoromethyl)phenyl)cyclopropyl)-N-((1-methylpyrrolidin-2-yl)methyl)methanesulfonamide]: in data set [1], the IC50 was less than 0.3 µM. Moreover, the solubility at 16 h in the data set “physchem” was 621 µg/mL and 1600 µM.

In the case of `CS(=O)(=O)N(C[C@@H]1CCCN1)C1(c2ccc(F)c(C(F)(F)F)c2)CC1` [(S)-N-(1-(4-fluoro-3-(trifluoromethyl)phenyl)cyclopropyl)-N-(pyrrolidin-2-ylmethyl) methanesulfonamide], the half-maximal inhibitory concentration (IC50) in data set [1] was less than 1 µM. Moreover, in “physchem” (setting [2]), the “Measured Solubility in pH 7.4 phosphate buffer (mg/ml)” value was 0.3218 mg/ml and the “Measured Solubility in pH 7.4 phosphate buffer (μM)” value (shortened to “Measured Solubility … (μM)”) is given as 800 μM.

With `O=C(OC1CC1)N(C[C@@H]1CCCN1)C1(c2ccc(F)c(C(F)(F)F)c2)CC1` [Cyclopropyl (S)-(1-(4-fluoro-3-(trifluoromethyl)phenyl)cyclopropyl)(pyrrolidin-2-ylmethyl)carbamate], the IC50 in data set [1] is less than 0.3 µM. For the same compound, the solubility at 16 h in the data set “physchem” is 601 µg/mL and 1600 µM.

As to `CCOC(=O)N(CC(C)(C)N)C1(c2ccc(F)c(C(F)(F)F)c2)CC1` [Ethyl (2-amino-2-methylpropyl)(1-(4-fluoro-3-(trifluoromethyl)phenyl)cyclopropyl)carbamate], the IC50 in data set [1] is less than 0.3 µM. The solubility at 16 h in “physchem” was 607 µg/mL and 1500 µM.

As to `CCOC(=O)N(C[C@H]1CCCN1)C1(c2ccc(F)c(C(F)(F)F)c2)CC1` [Ethyl (R)-(1-(4-fluoro-3-(trifluoromethyl)phenyl)cyclopropyl)(pyrrolidin-2-ylmethyl)carbamate], the half-maximal inhibitory concentration (IC50) in data set [1] was less than 0.3 µM. Moreover, the solubility at 16 h in the data set “physchem” is 616 µg/mL and 1500 µM.

`CCOC(=O)N(C[C@@H]1CCCN1C)C1(c2ccc(F)c(C(F)(F)F)c2)CC1` [Ethyl (S)-(1-(4-fluoro-3-(trifluoromethyl)phenyl)cyclopropyl)((1-methylpyrrolidin-2-yl)methyl) carbamate]: the IC50 in data set [1] is less than 0.3 µM. Moreover, in the data set “physchem” (setting [2]), the “Measured Solubility in pH 7.4 phosphate buffer (mg/ml)” value came out at 0.5679 mg/ml and the “Measured Solubility … (μM)” value is recorded as 1500 μM.

Turning to `CCOC(=O)N(C[C@@H]1CCCN1)C1(c2ccc(F)c(C(F)(F)F)c2)CC1` [Ethyl (S)-(1-(4-fluoro-3-(trifluoromethyl)phenyl)cyclopropyl)(pyrrolidin-2-ylmethyl)carbamate], in data set [1], the IC50 is less than 0.3 µM. In addition, in the data set “physchem”, the solubility at 16 h is 594 µg/mL and 1400 µM.

Regarding `CC(C)OC(=O)N(C[C@@H]1CCCN1)C1(c2ccc(F)c(C(F)(F)F)c2)CC1` [Isopropyl (S)-(1-(4-fluoro-3-(trifluoromethyl)phenyl)cyclopropyl)(pyrrolidin-2-ylmethyl)carbamate], the IC50 in data set [1] was less than 0.3 µM. The solubility at 16 h in the data set “physchem” was 615 µg/mL and 1600 µM.

In the case of `COC(=O)N1CC(N(C(=O)OC)C2(c3ccc(F)c(C(F)(F)F)c3)CC2)C1` [Methyl 3-((1-(4-fluoro-3-(trifluoromethyl)phenyl)cyclopropyl) (methoxycarbonyl)amino)azetidine-1-carboxylate], the IC50 in data set [1] was less than 0.3 µM. The solubility at 16 h in the data set “physchem” was 27.9 µg/mL and 100 µM.

On to `COC(=O)N(CC(C)(C)NO)C1(c2ccc(F)c(C(F)(F)F)c2)CC1` [Methyl (1-(4-fluoro-3-(trifluoromethyl)phenyl)cyclopropyl)(2-(hydroxyamino)-2-methylpropyl)carbamate], for which, in data set [1], the IC50 was less than 0.3 µM. For the same compound, the solubility at 16 h in the data set “physchem” was 138 µg/mL and 400 µM.

With `COC(=O)N(CC1CCN1C)C1(c2ccc(F)c(C(F)(F)F)c2)CC1` (stereo not drawn) [Methyl (1-(4-fluoro-3-(trifluoromethyl)phenyl)cyclopropyl)((1-methylazetidin-2-yl)methyl)carbamate], the concentration for half-maximal inhibition (IC50) in data set [1] was less than 0.3 µM. For the same compound, the solubility at 16 h in “physchem” was 598 µg/mL and 1700 µM.

With `COC(=O)N(CC(C)(C)NC(C)=O)C1(c2ccc(F)c(C(F)(F)F)c2)CC1` [Methyl (2-acetamido-2-methylpropyl)(1-(4-fluoro-3-(trifluoromethyl)phenyl)cyclopropyl)carbamate], the IC50 in data set [1] is less than 1 µM. Besides, in “physchem”, the solubility at 16 h was 596 µg/mL and 1500 µM.

Take `COC(=O)N(CC(C)(C)N)C1(c2cc(Cl)cc(Cl)c2)CC1` [Methyl (2-amino-2-methylpropyl)(1-(3,5-dichlorophenyl)cyclopropyl)carbamate]: the IC50 in data set [1] is less than 0.3 µM. The solubility at 16 h in “physchem” is 578 µg/mL and 1600 µM.

Consider `COC(=O)N(CC(C)(C)N)C1(c2cccc(C(F)(F)F)c2)CC1` [Methyl (2-amino-2-methylpropyl)(1-(3-(trifluoromethyl)phenyl)cyclopropyl)carbamate], for which, in data set [1], the IC50 was less than 0.3 µM. For the same compound, the solubility at 16 h in “physchem” was 526 µg/mL and 1400 µM.

Regarding `COC(=O)N(CC(C)(C)N)C1(c2cccc(Br)c2)CC1` [Methyl (2-amino-2-methylpropyl)(1-(3-bromophenyl)cyclopropyl)carbamate], the concentration for half-maximal inhibition (IC50) in data set [1] is less than 1 µM. For the same compound, the solubility at 16 h in the data set “physchem” was 376 µg/mL and 800 µM.

Regarding `COC(=O)N(CC(C)(C)N)C1(c2cccc(Cl)c2)CC1` [Methyl (2-amino-2-methylpropyl)(1-(3-chlorophenyl)cyclopropyl)carbamate], the IC50 in data set [1] is less than 1 µM. Also, in “physchem”, the solubility at 16 h was 634 µg/mL and 1500 µM.

With `COC(=O)N(CC(C)(C)N)C1(c2ccc(F)c(OC(F)(F)F)c2)CC1` [Methyl (2-amino-2-methylpropyl)(1-(4-fluoro-3-(trifluoromethoxy)phenyl)cyclopropyl)carbamate], the IC50 in data set [1] is less than 0.3 µM. Also, the solubility at 16 h in “physchem” was 584 µg/mL and 1500 µM.

Take `O=C1CSc2ccccc2N1Cc1cccc(C(F)(F)F)c1` [NS6180, 4-[[3-(Trifluoromethyl)-phenyl]methyl]-2H-1,4-benzothiazin-3(4H)-one, reference compound]: in “physchem”, the solubility at 16 h is 2.8 µM and 0.9 µg/mL. For the same compound, in the data set “physchem” (16 h, pH 7.4), the “Measured Solubility … (μM)” value amounted to 2.8 μM.

Turning to `COC(=O)N(C[C@H]1CCCN1)C1(c2cccc(C(F)(F)F)c2)CCC1` [methyl N-{[(2R)-pyrrolidin-2-yl]methyl}-N-{1-[3-(trifluoromethyl)phenyl]cyclobutyl}carbamate], the IC50 in data set [1] is less than 0.3 µM.

With `COC(=O)N(C[C@@H]1CCCN1)C1(c2cccc(C(F)(F)F)c2)CCC1` [methyl N-{[(2S)-pyrrolidin-2-yl]methyl}-N-{1-[3-(trifluoromethyl)phenyl]cyclobutyl}carbamate], the IC50 in data set [1] was less than 0.3 µM.

A word on the IC50: it is the midpoint of a concentration-inhibition curve. The term solubility denotes the concentration that dissolves in the medium under given conditions. A lower solubility goes with little dissolved substance.

The record behind these values is patent publication US20240034717A1, “NOVEL POTASSIUM CHANNEL INHIBITORS” (Saniona A/S, priority 2020, published 2024).
